Usually inhibition stands for the change of the read-out against control, counted positive when it falls.

Inhibition data for two molecules are collected here from ChEMBL document CHEMBL5653615 (J Biol Chem, 2013).

Test [1] concerns the target Serine/threonine-protein kinase Nek7 (Homo sapiens) (UniProt Q8TDX7). As to the kind of experiment: Inhibition of human NEK7 at 500 nM by HotSpot assay relative to control.
For another test, the species on record is Homo sapiens. Description: Inhibition of human CDK2/cyclin A at 500 nM by HotSpot assay relative to control.
The target in test [2] is Myosin light chain kinase, smooth muscle (Homo sapiens) (UniProt Q15746). Description: Inhibition of human MYLK at 500 nM by HotSpot assay relative to control.
Sequence of Myosin light chain kinase, smooth muscle (Homo sapiens) (Q15746 whole entry): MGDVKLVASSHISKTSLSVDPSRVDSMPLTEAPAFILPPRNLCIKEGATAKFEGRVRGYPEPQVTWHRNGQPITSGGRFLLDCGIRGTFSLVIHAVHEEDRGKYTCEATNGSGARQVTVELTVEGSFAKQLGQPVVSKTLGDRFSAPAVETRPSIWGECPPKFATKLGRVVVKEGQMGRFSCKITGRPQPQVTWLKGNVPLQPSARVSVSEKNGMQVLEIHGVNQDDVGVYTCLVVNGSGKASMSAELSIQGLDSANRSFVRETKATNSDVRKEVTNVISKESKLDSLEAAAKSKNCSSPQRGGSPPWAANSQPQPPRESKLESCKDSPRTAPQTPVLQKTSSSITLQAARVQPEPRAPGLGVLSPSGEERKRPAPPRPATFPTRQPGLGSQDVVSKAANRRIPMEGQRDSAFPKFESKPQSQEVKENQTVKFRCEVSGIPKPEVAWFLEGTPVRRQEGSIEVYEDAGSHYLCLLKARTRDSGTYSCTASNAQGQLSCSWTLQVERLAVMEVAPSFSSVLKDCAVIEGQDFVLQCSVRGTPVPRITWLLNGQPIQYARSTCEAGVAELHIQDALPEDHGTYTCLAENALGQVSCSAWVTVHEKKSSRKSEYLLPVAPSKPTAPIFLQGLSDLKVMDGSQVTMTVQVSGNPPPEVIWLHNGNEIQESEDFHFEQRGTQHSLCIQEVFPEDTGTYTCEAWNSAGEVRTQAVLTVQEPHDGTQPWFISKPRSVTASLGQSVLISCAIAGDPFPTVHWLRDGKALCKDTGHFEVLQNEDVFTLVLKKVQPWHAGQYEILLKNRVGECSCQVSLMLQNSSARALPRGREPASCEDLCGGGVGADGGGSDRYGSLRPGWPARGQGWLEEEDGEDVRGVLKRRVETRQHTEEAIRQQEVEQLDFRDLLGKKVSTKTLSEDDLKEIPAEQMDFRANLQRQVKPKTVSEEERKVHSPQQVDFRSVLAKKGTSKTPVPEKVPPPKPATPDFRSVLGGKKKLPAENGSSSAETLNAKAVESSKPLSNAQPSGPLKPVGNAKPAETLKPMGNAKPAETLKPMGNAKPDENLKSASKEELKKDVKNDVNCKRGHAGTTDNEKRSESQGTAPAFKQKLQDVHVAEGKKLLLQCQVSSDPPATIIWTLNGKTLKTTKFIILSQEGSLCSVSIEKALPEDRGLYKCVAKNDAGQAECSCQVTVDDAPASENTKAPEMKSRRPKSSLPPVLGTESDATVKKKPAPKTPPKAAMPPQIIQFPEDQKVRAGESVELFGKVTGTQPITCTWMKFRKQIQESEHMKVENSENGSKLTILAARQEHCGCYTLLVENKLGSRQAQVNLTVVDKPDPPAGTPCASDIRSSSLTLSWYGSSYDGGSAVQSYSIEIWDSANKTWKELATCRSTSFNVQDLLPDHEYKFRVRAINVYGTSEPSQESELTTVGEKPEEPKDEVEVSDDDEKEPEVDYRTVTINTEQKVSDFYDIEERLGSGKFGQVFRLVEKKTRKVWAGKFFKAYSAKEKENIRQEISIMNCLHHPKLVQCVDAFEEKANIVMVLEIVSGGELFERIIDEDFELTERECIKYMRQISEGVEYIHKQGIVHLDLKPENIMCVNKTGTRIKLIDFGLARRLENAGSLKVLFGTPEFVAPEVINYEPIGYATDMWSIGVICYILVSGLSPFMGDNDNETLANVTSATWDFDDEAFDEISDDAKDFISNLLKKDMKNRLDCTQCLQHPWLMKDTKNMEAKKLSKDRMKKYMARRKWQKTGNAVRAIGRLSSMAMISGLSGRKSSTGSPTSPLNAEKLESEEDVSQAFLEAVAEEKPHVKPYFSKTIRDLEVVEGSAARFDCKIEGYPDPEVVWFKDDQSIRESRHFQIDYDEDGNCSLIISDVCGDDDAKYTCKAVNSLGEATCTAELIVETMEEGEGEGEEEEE
The target in test [3] is BDNF/NT-3 growth factors receptor (Homo sapiens) (UniProt Q16620). Description: Inhibition of human TRKB at 500 nM by HotSpot assay relative to control.
The target of test [4] is Aurora kinase B (Homo sapiens) (UniProt Q96GD4). Description: Inhibition of human Aurora B at 500 nM by HotSpot assay relative to control.
Sequence of Aurora kinase B (Homo sapiens) (Q96GD4 whole entry): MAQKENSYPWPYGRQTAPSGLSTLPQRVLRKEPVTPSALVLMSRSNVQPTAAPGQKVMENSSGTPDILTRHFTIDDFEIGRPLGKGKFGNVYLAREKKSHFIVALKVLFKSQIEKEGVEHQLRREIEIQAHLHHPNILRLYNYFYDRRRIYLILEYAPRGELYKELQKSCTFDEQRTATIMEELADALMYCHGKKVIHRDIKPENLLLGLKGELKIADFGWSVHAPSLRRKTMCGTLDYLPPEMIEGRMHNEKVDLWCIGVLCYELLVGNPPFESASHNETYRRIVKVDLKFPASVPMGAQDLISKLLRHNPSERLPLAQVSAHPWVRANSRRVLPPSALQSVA
Test [5] addresses Dual specificity tyrosine-phosphorylation-regulated kinase 1A (Homo sapiens) (UniProt Q13627). As to the kind of experiment: Inhibition of human DYRK1 at 500 nM by HotSpot assay relative to control.
Test [6] concerns the target Tyrosine-protein kinase JAK1 (Homo sapiens) (UniProt P23458). As to the kind of experiment: Inhibition of human JAK1 at 500 nM by HotSpot assay relative to control.
Test [7] deals with Tyrosine-protein kinase Lyn (Homo sapiens) (UniProt P07948). Description: Inhibition of human LYN B at 500 nM by HotSpot assay relative to control.
Sequence of Tyrosine-protein kinase Lyn (Homo sapiens) (P07948 2-512 limits assumed): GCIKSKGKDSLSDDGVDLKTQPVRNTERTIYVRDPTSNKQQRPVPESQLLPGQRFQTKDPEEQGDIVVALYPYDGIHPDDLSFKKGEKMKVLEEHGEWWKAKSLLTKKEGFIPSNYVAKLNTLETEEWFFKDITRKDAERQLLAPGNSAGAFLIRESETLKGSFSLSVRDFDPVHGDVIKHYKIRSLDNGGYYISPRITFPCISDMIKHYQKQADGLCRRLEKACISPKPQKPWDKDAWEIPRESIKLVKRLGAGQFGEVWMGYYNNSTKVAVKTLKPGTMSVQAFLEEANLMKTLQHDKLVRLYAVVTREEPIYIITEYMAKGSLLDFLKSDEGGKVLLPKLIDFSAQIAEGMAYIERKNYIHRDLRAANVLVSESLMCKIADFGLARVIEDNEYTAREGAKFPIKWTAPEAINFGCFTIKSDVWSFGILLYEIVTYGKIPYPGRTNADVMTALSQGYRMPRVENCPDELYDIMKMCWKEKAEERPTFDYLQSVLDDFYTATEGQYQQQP
The target of test [8] is T1, cGMP-dependent protein kinase 1 (Homo sapiens) (UniProt Q13976).
T1 sequence (whole entry): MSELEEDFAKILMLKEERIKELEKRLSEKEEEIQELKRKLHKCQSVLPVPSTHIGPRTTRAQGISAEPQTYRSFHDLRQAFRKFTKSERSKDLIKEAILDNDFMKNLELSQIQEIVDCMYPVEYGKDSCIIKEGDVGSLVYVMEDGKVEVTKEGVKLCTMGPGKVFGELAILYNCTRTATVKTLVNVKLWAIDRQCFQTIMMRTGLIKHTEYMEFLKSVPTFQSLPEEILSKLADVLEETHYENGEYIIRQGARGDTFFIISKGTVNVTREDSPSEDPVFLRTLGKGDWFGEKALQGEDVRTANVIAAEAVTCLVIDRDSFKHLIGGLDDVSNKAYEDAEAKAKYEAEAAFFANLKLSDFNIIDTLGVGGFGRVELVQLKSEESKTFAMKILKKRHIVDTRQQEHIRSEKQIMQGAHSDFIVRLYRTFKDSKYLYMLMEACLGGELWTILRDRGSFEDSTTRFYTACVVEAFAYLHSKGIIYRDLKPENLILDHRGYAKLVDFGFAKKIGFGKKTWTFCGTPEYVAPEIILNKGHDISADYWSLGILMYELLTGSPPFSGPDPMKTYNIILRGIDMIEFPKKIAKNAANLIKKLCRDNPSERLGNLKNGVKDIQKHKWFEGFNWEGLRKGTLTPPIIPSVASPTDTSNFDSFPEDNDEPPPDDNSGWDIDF
As to the kind of experiment: Inhibition of human PKG1a at 500 nM by HotSpot assay relative to control.

The target of test [9] is T2, TGF-beta receptor type-1 (Homo sapiens) (UniProt P36897).
T2 sequence (whole entry): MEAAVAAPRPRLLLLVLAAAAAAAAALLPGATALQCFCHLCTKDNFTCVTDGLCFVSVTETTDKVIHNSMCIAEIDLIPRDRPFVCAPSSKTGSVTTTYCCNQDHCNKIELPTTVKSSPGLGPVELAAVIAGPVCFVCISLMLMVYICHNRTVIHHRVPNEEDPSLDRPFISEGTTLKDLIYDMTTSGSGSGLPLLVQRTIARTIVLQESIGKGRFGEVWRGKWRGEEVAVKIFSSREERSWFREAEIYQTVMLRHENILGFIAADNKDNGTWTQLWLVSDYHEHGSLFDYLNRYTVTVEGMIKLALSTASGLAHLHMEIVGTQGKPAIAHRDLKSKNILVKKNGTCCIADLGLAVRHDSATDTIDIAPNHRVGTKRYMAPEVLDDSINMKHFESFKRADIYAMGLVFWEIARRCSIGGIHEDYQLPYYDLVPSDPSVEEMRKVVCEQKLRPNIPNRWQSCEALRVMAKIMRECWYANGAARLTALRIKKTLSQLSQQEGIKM
Description: Inhibition of human ALK5 at 500 nM by HotSpot assay relative to control.

For test [10], the target named is Serine/threonine-protein kinase pim-1 (Homo sapiens) (UniProt P11309). Description: Inhibition of human PIM1 at 500 nM by HotSpot assay relative to control.
Sequence of Serine/threonine-protein kinase pim-1 (Homo sapiens) (P11309 whole entry, looked up, the tested form may be a part): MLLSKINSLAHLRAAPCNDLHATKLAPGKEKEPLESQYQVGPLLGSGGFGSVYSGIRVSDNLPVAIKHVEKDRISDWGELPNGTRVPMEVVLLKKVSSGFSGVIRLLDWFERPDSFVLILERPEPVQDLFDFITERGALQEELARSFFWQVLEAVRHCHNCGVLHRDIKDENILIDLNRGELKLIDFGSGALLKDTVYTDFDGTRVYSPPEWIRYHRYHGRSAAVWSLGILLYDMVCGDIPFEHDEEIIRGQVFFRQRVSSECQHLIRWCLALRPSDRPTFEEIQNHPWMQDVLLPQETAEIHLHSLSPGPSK
The nature of test [11]: Inhibition of unphosphorylated human Insulin receptor (978 to 1283 residues) C981S mutant kinase domain expressed in baculovirus infected Sf9 cells incubated for 1 hr by [gamma-33P]ATP assay.
Test [12] deals with T3, 3-phosphoinositide-dependent protein kinase 1 (Homo sapiens) (UniProt O15530).
T3 sequence (whole entry): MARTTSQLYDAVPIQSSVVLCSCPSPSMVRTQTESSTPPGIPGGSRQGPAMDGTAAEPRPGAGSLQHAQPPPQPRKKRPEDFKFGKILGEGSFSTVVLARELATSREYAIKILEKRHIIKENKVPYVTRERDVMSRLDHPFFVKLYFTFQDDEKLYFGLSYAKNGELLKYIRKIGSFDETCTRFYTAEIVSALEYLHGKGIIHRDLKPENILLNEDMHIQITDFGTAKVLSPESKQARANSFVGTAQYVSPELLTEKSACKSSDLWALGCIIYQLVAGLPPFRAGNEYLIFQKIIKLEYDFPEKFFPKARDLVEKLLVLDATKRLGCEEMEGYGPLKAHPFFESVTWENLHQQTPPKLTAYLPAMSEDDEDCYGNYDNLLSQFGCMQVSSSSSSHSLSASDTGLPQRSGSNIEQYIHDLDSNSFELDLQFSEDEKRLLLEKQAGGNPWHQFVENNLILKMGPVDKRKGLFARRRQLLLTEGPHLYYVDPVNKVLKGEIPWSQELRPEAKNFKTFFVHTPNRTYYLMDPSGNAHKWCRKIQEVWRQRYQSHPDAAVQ
Description: Inhibition of human PDPK1 at 500 nM by HotSpot assay relative to control.

Active and inactive are the calls of the source. The rule behind the calls is not given here.

Sequence of Tyrosine-protein kinase JAK1 (Homo sapiens) (P23458 whole entry): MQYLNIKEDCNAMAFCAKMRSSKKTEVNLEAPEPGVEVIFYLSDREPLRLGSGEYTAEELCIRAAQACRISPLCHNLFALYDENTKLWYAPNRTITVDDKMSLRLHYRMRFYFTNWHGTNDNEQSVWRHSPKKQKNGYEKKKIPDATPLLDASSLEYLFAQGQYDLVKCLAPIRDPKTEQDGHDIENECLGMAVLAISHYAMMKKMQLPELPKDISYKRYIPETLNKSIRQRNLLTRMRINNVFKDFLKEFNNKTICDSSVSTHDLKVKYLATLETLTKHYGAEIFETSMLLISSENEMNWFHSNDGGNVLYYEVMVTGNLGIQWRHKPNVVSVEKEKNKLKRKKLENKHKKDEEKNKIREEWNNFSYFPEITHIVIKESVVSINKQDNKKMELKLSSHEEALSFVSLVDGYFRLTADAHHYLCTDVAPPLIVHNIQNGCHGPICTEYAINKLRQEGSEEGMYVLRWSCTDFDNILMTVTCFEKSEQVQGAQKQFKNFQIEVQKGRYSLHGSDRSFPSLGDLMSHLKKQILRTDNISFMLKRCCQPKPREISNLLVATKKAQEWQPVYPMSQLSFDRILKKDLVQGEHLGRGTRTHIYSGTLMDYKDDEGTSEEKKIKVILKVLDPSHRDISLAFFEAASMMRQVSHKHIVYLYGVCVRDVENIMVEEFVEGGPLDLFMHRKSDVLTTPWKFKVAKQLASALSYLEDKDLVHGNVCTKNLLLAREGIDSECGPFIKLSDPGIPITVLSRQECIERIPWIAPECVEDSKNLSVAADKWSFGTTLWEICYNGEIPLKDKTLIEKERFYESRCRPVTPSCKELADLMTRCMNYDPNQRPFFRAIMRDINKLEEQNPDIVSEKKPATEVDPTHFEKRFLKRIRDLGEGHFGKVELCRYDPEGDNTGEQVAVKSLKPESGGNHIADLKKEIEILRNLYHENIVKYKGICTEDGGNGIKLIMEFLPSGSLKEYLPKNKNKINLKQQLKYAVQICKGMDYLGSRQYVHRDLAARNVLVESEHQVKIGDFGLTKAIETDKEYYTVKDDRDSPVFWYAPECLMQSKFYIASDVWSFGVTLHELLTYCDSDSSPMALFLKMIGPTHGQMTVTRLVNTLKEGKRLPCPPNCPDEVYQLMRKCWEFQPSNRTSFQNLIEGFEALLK
Sequence of Serine/threonine-protein kinase Nek7 (Homo sapiens) (Q8TDX7 whole entry, looked up): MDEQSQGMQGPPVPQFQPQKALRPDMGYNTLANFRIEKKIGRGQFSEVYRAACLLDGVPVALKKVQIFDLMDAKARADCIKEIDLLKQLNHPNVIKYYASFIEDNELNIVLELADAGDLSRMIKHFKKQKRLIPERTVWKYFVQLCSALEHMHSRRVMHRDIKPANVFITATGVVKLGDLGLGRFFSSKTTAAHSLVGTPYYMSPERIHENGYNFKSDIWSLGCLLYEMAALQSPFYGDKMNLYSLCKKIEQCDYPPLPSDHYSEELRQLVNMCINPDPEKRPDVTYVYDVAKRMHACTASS

`Oc1n[nH]c2nnc(-c3c(-c4ccccc4)nn4ccccc34)cc12`: the inhibition in test [1] is 3.15%; in the test listed under Homo sapiens, -0.72%; in test [2] it was 1.22%; in test [3], 2.59%; in test [4], 2.45%; in [5], -2.58%. The inhibition was -1.98% in test [6]; 2.89% in [7]; -5.37% in [8]; 4.23% in test [9]; 0.66% in test [10]; 7.43% in test [12]. Further, the inhibition result in [11] was “Active”.
Consider `Nc1n[nH]c2nnc(-c3c(-c4ccccc4)nn4ccccc34)cc12`, for which the inhibition in test [1] is 4.72%; in the test filed under Homo sapiens, 7.12%; in test [2], 1.66%; in [3], 10.3%; in test [4] it was 3.24%; in [5], -1.99%. Moreover, the inhibition is -3.59% in [6]; 2.89% in test [7]; 6.39% in test [8]; 3.87% in test [9]; -0.39% in test [10]; -3.56% in test [12]. Besides, the inhibition result in test [11] was “Active”.
